These results are taken from patent US5882881A, “Inhibition of cyst formation by cytoskeletal specific drugs” (priority 1998, dated 1999).

Series [1] deals with Murine CPK Cells. Put plainly: In vitro cyst formation and cyst size in suspension culture of murine CPK cells. The class given is cell-based, mouse. The procedure:
At 10, 21 and 28 days after birth, mice having congenital polycystic kidney disease (CPK) and their phenotypically normal littermates were sacrificed by cervical dislocation. Kidneys were harvested aseptically and washed with DMEM/F12 (Sigma Chemical Co., St. Louis, Mo.) in a 1:1 mix. Each decapsulated kidney was chopped into cubes (1 mm) and incubated in 5 ml of collagenase solution composed of 1 mg/ml collagenase type IV (Worthington Biochemical Corporation, Freehold, N.J.), 1 mg/ml egg white trypsin inhibitor (Worthington) in 1:1 DMEM/F12.
The top 12 mls, which contained both single cells and aggregates of up to 10 cells, as assessed by inverted phase-ontrast microscopy, were placed in 2 ml aliquots in the wells of plastic culture plates (Corning, N.Y.) precoated with 1% agarose in DMEM:F12 (2 ml in each well of a 6-well plate; 1 ml in each well of a 24-well plate). Cell samples were digested with further incubation for 10 minutes in 0.05% trypsin and 0.53 mM EDTA (Gibco, BRL Gaithesburg, Md.) at 37° C. All cultures were plated at a final density of 1-3×10^4 cell, per well. For growth studies of monolayer cells, identical preparations were grown on the plastic surface of the culture plates. Both the monolayers and the cell suspensions were incubated at 37° C. in a moisture saturated incubator in 5% CO2 and air.
(§1) I used the in vitro cyst formation system of the present invention to analyze compounds that affect the process of cyst formation. To determine the therapeutic effectiveness of an agent, cyst-forming cells are suspended in a medium to which the agent has been added. These cells are then cultured on a solid phase without formation of a layer of cells on the surface, such as in the assay system described in Example 1. The extent to which the cells actually form cysts can be detected and compared to the extent of cyst formation expected if no agent were added. If the amount of cyst formation is lower than expected, then the agent is a good candidate for therapeutic intervention of cystic diseases.
(§2) The effects of various metabolic inhibitors on cyst formation were studied in cultures derived from day 21 postnatal CPK mice. […] Taxol (25 μM), a microtubule specific inhibitor, was from Calbiochem (La Jolla, Calif.). All other chemicals were obtained from Sigma Chemical Co. Cytosine arabinoside was added at the final concentration of 20 μg/ml to inhibit DNA synthesis; α-amanitin at 100 ng/ml to inhibit RNA synthesis; cycloheximide at 40 μg/ml to inhibit protein synthesis; amiloride at 1 mM to inhibit the renal epithelial Na^+ -H^+ exchange; ouabain at 0.5 mM to inhibit Na^+ -K^+ -ATPase; brefeldin-A at 10 μg/ml to inhibit transport of surface proteins; griseofulvin at 350 μM to inhibit microtubule function; colchicine at 10 μM to inhibit microtubule polymerization; and cytochalasin-B and cytochalasin-D at 10 μM to depolymerize actin filaments.
(§3) In the presence of these metabolic inhibitors in vitro, cyst formation was noted to be either present or absent; if present, the diameters of 20 cysts from a 0.2 ml aliquot were measured. In the same samples, ^3 H-dThd incorporation was also measured as described above. […] After each wash, cell clusters were collected by centrifuging at 200×g for 1 minute and the supernatant discarded. Washed cell clusters were resuspended in the original volume of growth medium without inhibitors, placed in agarose coated wells and incubated at 37° C. in a moisture saturated incubator in 5% CO2 and air.
(§4) In this table, the mean cyst size is reported as ±SD with a measurement of twenty cysts. The ^3 H-dThd incorporation is reported as ±SD using measurements of three wells. The * indicates […] versus control. […] The entries listed as "NA" in the table indicate data that is not available.

Series [2] concerns Murine CPK Cells. Put plainly: 3H-thymidine incorporation (DNA synthesis) in CPK cell suspension culture. The class given is cell-based, mouse. To be noted: ± SD, three wells; concentrations as in Table II; control 100 ± 11; 1440 min. The protocol: Growth studies were performed on kidney cells derived from day 10, 21 and 28 postnatal CPK mice and their normal littermates. Immediately after cells were placed in suspension or monolayer culture, 3 μCi of ^3 H-thymidine (^3 H-dThd, specific activity 45 Ci/mmol, Amersham, Ill.) was placed in each well of the culture plate. DNA synthesis was assessed by incorporation of ^3 H-dThd over the 24 hours of culture, and trichloroacetic acid-insoluble. radioactivity was expressed as cpm/μg protein. Protein was assayed with the BCA reagent as described by the manufacturer (Pierce, Rockford, Ill.). At 24 hours of culture, an aliquot (0.2 ml) of the suspension was removed and the number of cysts counted using an inverted microscope. The number of cysts was expressed as a ratio factored for the total number of cells in the suspension at 24 hours of culture. Cyst diameter was measured at 100× using an eyepiece micrometer.
as §2, §3, §4
For orientation: Incorporation of labelled thymidine or its analogues reports DNA synthesis.

A further series relates to human ADPKD cells. Put plainly: In vitro cyst formation in human ADPKD cells. It is filed as cell-based. Particulars: human ADPKD cells; cytosine arabinoside 20 μg/ml, α-amanitin 100 ng/ml, cycloheximide 40 μg/ml, amiloride 1 mM, ouabain 0.5 mM, taxol 25 μM, colchicine 10 μM, vinblastine 1 μM, cytochalasins 10 μM.
From the text: I have substituted human ADPKD cells for the murine CPK cells of Example 1 and produced similar results. Other cyst-forming cells are believed to also form suitable results with only minor deviations from the conditions set forth in Example 1.
Cell suspensions were separated from debris by sedimentation at unit gravity and decantation. After washing once with DMEM/F12 medium, cells were suspended in DMEM/F12 supplemented with 1.2 gm/l sodium bicarbonate, 1× insulin, transferrin and selenium (Sigma # 11184), 1% lipids supplement (Sigma # L4646) and 1× antibiotic/antimycotic (Sigma # A7292) at a density of 5×10^4 cells per ml. Two mls of the cell suspension were aliquoted into each well of a six-well plastic cell culture plates that had been precoated with 2 mls of 1% low melting point agarose in DMEM/F12 and incubated at 37° C. in a humidified atmosphere of 5% CO2 in air.
as §1

The test system of series [3] is normal phenotype, heterozygous mice. Put plainly: Body weight of normal phenotype heterozygous C57BL/6 mice (FIG. 3A). To be noted: versus methotrexate or non-treated. The class given is in vivo, mouse. The text has this:
[…]. The body weights of untreated, taxol treated and methotrexate treated C57BL/6j mice between day 10 and day 45 after birth is shown in A. The body weights of untreated, taxol treated and methotrexate treated cpk mice are shown in B. Results in each group are the mean of 6 animals. Untreated and methotrexate treated cpk mice died between days 26 and 28. […].
In a related procedure I treated both normal C57BL/6 and cpk mice at 11-14 days of age with either taxol or methotrexate as described above. Six untreated mice served as controls in this experiment.

Series [4] relates to Murine CPK Cells. Put plainly: In vitro cyst formation and cyst size in suspension culture of murine CPK cells. It is filed as cell-based, mouse. Particulars: day 21, 24 h, final concentration per Table II (cytosine arabinoside 20 μg/ml, α-amanitin 100 ng/ml, cycloheximide 49 μg/ml, ouabain 1 mM, amiloride 1 mM, brefeldin-A 10 μg/ml, griseofulvin 350 μM, colchicine 10 μM, vinblastine 1 μM, nocodazole 30 μM, taxol 25 μM, cytochalasins 10 μM).

The conditions of series [5]: humans; approximately; cited from earlier work.

SMILES strings stand for the structures.

Turning to `CC(=O)O[C@H]1C(=O)[C@@]2(C)[C@H]([C@H](OC(=O)c3ccccc3)[C@]3(O)C[C@H](OC(=O)[C@H](O)[C@@H](NC(=O)c4ccccc4)c4ccccc4)C(C)=C1C3(C)C)[C@]1(OC(C)=O)CO[C@@H]1C[C@@H]2O` [Taxol], the “Cyst Size” value in the series with Murine CPK Cells [1] (mean ± SD of twenty cysts, concentrations as in Table II, control 71 ± 22) was 0 μm. Also, the “cyst formation (in words)” value in the series on Murine CPK Cells [1] (murine CPK cells, 24 h suspension culture, ouabain 0.5 mM, also 1 mM, b155 taxol 25 μM, colchicine 10 μM, vinblastine 1 μM, cytochalasins 10 μM, model species not given) was “reversibly inhibited in vitro cyst formation in both models”; with human ADPKD cells it was “reversibly inhibited in vitro cyst formation in both models”. The “^3 H-dThd Incorporation” value in the series on Murine CPK Cells [2] is 90 ± 11 % control. For the same molecule, the “weight gain (in words)” value in series [3] is on record as “gained less weight”. The “Cyst Formation (+/-)” value in the series on Murine CPK Cells [4] was “-”. In series [5], the in vivo half-life is 6 to 12 h.
